Measurements published in US4282244A, “Optical isomers of 4-amino-N-(1-cyclohexyl-3-pyrrolidinyl)-N-methylbenzamide” (A. H. Robins Company, Inc., priority 1980, dated 1981).
Where a name gives a salt, the structure may show the parent alone.

Legend:
[1] = cataleptic effects (Tedeschi et al.); format: in vivo, rat; details: in vivo, rat, fumarate salt, expressed as free base
Excerpt: The procedure used for determing cataleptic effects of the fumarate salts was based on that of Tedeschi et al., Arch. Int. Pharmacodyn.

[2] = test system: Metoclopramide-Induced Catalepsy; test: Effects on Metoclopramide-Induced Catalepsy; format: in vivo, rat; details: Metoclopramide 40 mg/kg IP
Description: (§1) (+)-4-Amino-N-(1-cyclohexyl-3-pyrrolidinyl)-N-methylbenzamide is useful in reducing the cataleptic side effects of known therapeutically effective drugs such as chlorpromazine [2-chloro-10-(3-dimethylaminopropyl)phenothiazine] and metoclopramide (N-diethylaminoethyl 2-methoxy-4-amino-5-chlorophenylcarboxamide). The effectiveness is shown in Tables IV and V. In each test the rat was administered a 100% effective cataleptic dose of the test drug followed one hour later by an effective dose of (+)-4-amino-N-(1-cyclohexyl-3-pyrrolidinyl)-N-methylbenzamide.

rat = test: acute toxicity (LD50), rat; format: in vivo; details: fumarate salt, expressed as free base
Description: (§2) The acute toxicities of the ±-racemate, the (+)-isomer and the (-)-isomer were conducted with the fumarate salts and probit analysis (Finney, D. J., Statistical Methods in Biological Assay, Hafner Pub. Co., N.Y., 2nd. Ed., 1964) was employed for the statistical treatment of the mortality data.

mouse = test: acute toxicity (LD50), mouse; format: in vivo; details: fumarate salt, expressed as free base
Description: as §2

[3] = test system: Chlorpromazine-Induced Catalepsy; test: Effects on Chlorpromazine-Induced Catalepsy; format: in vivo, rat; details: then (+)-isomer 25 mg/kg IP after one hour
Description: as §1

CN(C(=O)c1ccc(N)cc1)C1CCN(C2CCCCC2)C1 (single isomer, unassigned; (+)) [(+)-isomer, (+)-4-Amino-N-(1-cyclohexyl-3-pyrrolidinyl)-N-methyl benzamide Fumarate]
NOAEL ([1]; IP): 100 mg/kg
NOAEL ([1]; PO): 200 mg/kg
Percent of Rats Cataleptic ([2]; then (+)-isomer 12.5 mg/kg IP after one hour, 0.5 h after initial treatment): 100%
Percent of Rats Cataleptic ([2]; then (+)-isomer 12.5 mg/kg IP after one hour, 1.0 h after initial treatment): 100%
Percent of Rats Cataleptic ([2]; then (+)-isomer 12.5 mg/kg IP after one hour, 1.5 h after initial treatment): 100%
Percent of Rats Cataleptic ([2]; then (+)-isomer 12.5 mg/kg IP after one hour, 2.0 h after initial treatment): 88%
Percent of Rats Cataleptic ([2]; then (+)-isomer 12.5 mg/kg IP after one hour, 3.0 h after initial treatment): 88%
Percent of Rats Cataleptic ([2]; then (+)-isomer 12.5 mg/kg IP after one hour, 4.0 h after initial treatment): 100%
Percent of Rats Cataleptic ([2]; then (+)-isomer 12.5 mg/kg IP after one hour, 5.0 h after initial treatment): 100%
Percent of Rats Cataleptic ([2]; then (+)-isomer 12.5 mg/kg IP after one hour, 6.0 h after initial treatment): 100%
Percent of Rats Cataleptic ([2]; then (+)-isomer 12.5 mg/kg IP after one hour, 7.0 h after initial treatment): 100%
Percent of Rats Cataleptic ([2]; then (+)-isomer 25 mg/kg IP after one hour, 0.5 h after initial treatment): 100%
Percent of Rats Cataleptic ([2]; then (+)-isomer 25 mg/kg IP after one hour, 1.0 h after initial treatment): 100%
Percent of Rats Cataleptic ([2]; then (+)-isomer 25 mg/kg IP after one hour, 1.5 h after initial treatment): 100%
Percent of Rats Cataleptic ([2]; then (+)-isomer 25 mg/kg IP after one hour, 2.0 h after initial treatment): 75%
Percent of Rats Cataleptic ([2]; then (+)-isomer 25 mg/kg IP after one hour, 3.0 h after initial treatment): 38%
Percent of Rats Cataleptic ([2]; then (+)-isomer 25 mg/kg IP after one hour, 4.0 h after initial treatment): 75%
Percent of Rats Cataleptic ([2]; then (+)-isomer 25 mg/kg IP after one hour, 5.0 h after initial treatment): 88%
Percent of Rats Cataleptic ([2]; then (+)-isomer 25 mg/kg IP after one hour, 6.0 h after initial treatment): 88%
Percent of Rats Cataleptic ([2]; then (+)-isomer 40 mg/kg IP after one hour, 0.5 h after initial treatment): 88%
Percent of Rats Cataleptic ([2]; then (+)-isomer 40 mg/kg IP after one hour, 1.0 h after initial treatment): 88%
Percent of Rats Cataleptic ([2]; then (+)-isomer 40 mg/kg IP after one hour, 1.5 h after initial treatment): 25%
Percent of Rats Cataleptic ([2]; then (+)-isomer 40 mg/kg IP after one hour, 2.0 h after initial treatment): 13%
Percent of Rats Cataleptic ([2]; then (+)-isomer 40 mg/kg IP after one hour, 3.0 h after initial treatment): 38%
Percent of Rats Cataleptic ([2]; then (+)-isomer 40 mg/kg IP after one hour, 4.0 h after initial treatment): 38%
Percent of Rats Cataleptic ([2]; then (+)-isomer 40 mg/kg IP after one hour, 5.0 h after initial treatment): 88%
Percent of Rats Cataleptic ([2]; then (+)-isomer 40 mg/kg IP after one hour, 6.0 h after initial treatment): 88%
Percent of Rats Cataleptic ([2]; then (+)-isomer 40 mg/kg IP after one hour, 7.0 h after initial treatment): 88%
Percent of Rats Cataleptic ([2]; then (+)-isomer 50 mg/kg IP after one hour, 0.5 h after initial treatment): 100%
Percent of Rats Cataleptic ([2]; then (+)-isomer 50 mg/kg IP after one hour, 1.0 h after initial treatment): 100%
Percent of Rats Cataleptic ([2]; then (+)-isomer 50 mg/kg IP after one hour, 1.5 h after initial treatment): 13%
Percent of Rats Cataleptic ([2]; then (+)-isomer 50 mg/kg IP after one hour, 2.0 h after initial treatment): 13%
Percent of Rats Cataleptic ([2]; then (+)-isomer 50 mg/kg IP after one hour, 3.0 h after initial treatment): 25%
Percent of Rats Cataleptic ([2]; then (+)-isomer 50 mg/kg IP after one hour, 4.0 h after initial treatment): 25%
Percent of Rats Cataleptic ([2]; then (+)-isomer 50 mg/kg IP after one hour, 5.0 h after initial treatment): 75%
Percent of Rats Cataleptic ([2]; then (+)-isomer 50 mg/kg IP after one hour, 6.0 h after initial treatment): 88%
Percent of Rats Cataleptic ([2]; then (+)-isomer 50 mg/kg IP after one hour, 7.0 h after initial treatment): 75%
LD50 (95% Confidence Limits) (rat; I.P.): 147 (134-222) mg/kg
LD50 (95% Confidence Limits) (rat; P.O.): 499 (322-593) mg/kg
LD50 (95% Confidence Limits) (mouse; I.P.): 126 (115-139) mg/kg
LD50 (95% Confidence Limits) (mouse; P.O.): 267 (233-313) mg/kg
Percent of Rats Cataleptic ([3]; Chlorpromazine 4 mg/kg IP, 0.5 h after initial treatment): 100%
Percent of Rats Cataleptic ([3]; Chlorpromazine 4 mg/kg IP, 1.0 h after initial treatment): 100%
Percent of Rats Cataleptic ([3]; Chlorpromazine 4 mg/kg IP, 1.5 h after initial treatment): 50%
Percent of Rats Cataleptic ([3]; Chlorpromazine 4 mg/kg IP, 2.0 h after initial treatment): 33%
Percent of Rats Cataleptic ([3]; Chlorpromazine 4 mg/kg IP, 3.0 h after initial treatment): 33%
Percent of Rats Cataleptic ([3]; Chlorpromazine 4 mg/kg IP, 4.0 h after initial treatment): 50%
Percent of Rats Cataleptic ([3]; Chlorpromazine 4 mg/kg IP, 5.0 h after initial treatment): 100%
Percent of Rats Cataleptic ([3]; Chlorpromazine 4 mg/kg IP, 6.0 h after initial treatment): 67%
Percent of Rats Cataleptic ([3]; saline 10 ml/kg IP, 0.5 h after initial treatment): 0%
Percent of Rats Cataleptic ([3]; saline 10 ml/kg IP, 1.0 h after initial treatment): 0%
Percent of Rats Cataleptic ([3]; saline 10 ml/kg IP, 1.5 h after initial treatment): 0%
Percent of Rats Cataleptic ([3]; saline 10 ml/kg IP, 2.0 h after initial treatment): 0%
Percent of Rats Cataleptic ([3]; saline 10 ml/kg IP, 3.0 h after initial treatment): 0%
Percent of Rats Cataleptic ([3]; saline 10 ml/kg IP, 4.0 h after initial treatment): 17%
Percent of Rats Cataleptic ([3]; saline 10 ml/kg IP, 5.0 h after initial treatment): 17%
Percent of Rats Cataleptic ([3]; saline 10 ml/kg IP, 6.0 h after initial treatment): 0%
